Assay [1] has as its system Thr315lle Bcr-Abl. Particulars: only mutant of the 33 not inhibited.
Assay [2] relates to mutant forms of Bcr-Abl. The following applies: 33 mutant forms evaluated.

Consider `Cc1cn(-c2cc(NC(=O)c3ccc(C)c(Nc4nccc(-c5cccnc5)n4)c3)cc(C(F)(F)F)c2)cn1` [AMN107, 4-Methyl-3-[[4-(3-pyridinyl)-2-pyrimidinyl]amino]-N-[5-(4-methyl-1H-imidazol-1-yl)-3-(trifluoromethyl)phenyl] benzamide], for which, in assay [1], the “sensitivity of the Thr315lle mutant” value is on record as “resistant”. Moreover, the “mutant forms of Bcr-Abl inhibited, out of those currently evaluated” value in assay [2] was 32 of 33.

Values taken from patent publication US20090286803A1, “COMBINATION COMPRISING A) A PYRIMIDYLAMINOBENZAMIDE COMPOUND, AND B) A THR315LLE KINASE INHIBITOR” (priority 2006, published 2009).
